Assay results from patent US10653688B2, “6-(6-membered heteroaryl and aryl)isoquinolin-3-yl carboxamides and preparation and use thereof” (Samumed, LLC, priority 2017, dated 2020).
Read-outs that look alike come from different tables or passages of the source.

Tests used:
[1] = tested on: Wnt activity (SW480 colon carcinoma cells stably expressing the Sp5-Luc reporter gene); test: Wnt activity screening assay (Sp5-Luc reporter gene assay); assay type: cell-based, human; conditions: Homo sapiens; for EC50: 36 to 48 hours; for inhibition at 10 µM: read-out: percent inhibition at 10 μM (given for EC50 >10 μM), 10 μM
In short: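 EC50 values come from a variable-slope four-parameter fit of luminescence normalized to DMSO-only wells. The read-out follows 36–48 h incubation at 37 °C, 5% CO2, in DMEM containing 1% fetal bovine serum. Cells are hygromycin-selected SW480 stably expressing firefly luciferase under a Wnt-responsive Sp5 promoter (eight TCF/LEF sites).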

[2] = target: recombinant GSK3β kinase (Homo sapiens (Human), UniProt P49841); test: GSK3β kinase assay (Ser/Thr 09 peptide Z-lyte, FRET); assay type: biochemical;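 note: FRET read-out as coumarin over fluorescein emission ratio, compounds incubated one hour at room temperature, IC50 from dose-response curve fit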
Sequence of recombinant GSK3β kinase (P49841 whole entry): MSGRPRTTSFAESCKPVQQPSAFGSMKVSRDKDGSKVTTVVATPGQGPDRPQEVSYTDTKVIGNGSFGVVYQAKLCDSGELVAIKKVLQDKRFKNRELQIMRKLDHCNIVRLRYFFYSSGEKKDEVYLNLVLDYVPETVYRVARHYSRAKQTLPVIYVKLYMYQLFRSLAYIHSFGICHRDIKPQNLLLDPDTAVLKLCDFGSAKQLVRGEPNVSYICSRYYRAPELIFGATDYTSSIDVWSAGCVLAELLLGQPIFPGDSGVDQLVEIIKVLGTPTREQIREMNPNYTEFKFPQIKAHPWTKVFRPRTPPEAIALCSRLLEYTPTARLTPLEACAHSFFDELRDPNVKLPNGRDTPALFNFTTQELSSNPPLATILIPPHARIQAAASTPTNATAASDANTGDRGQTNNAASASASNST

[3] = tested on: LL29 cells (primary human fibroblasts derived from IPF patients), α-smooth muscle actin; test: Inhibition of fibrotic process: TGF-β1-treated primary human fibroblasts, αSMA staining; assay type: cell-based; conditions: Homo sapiens, Fibroblast; for EC50: 96 h, TGF-β1 20 ng/mL, 4 days, % cells positive for αSMA; for inhibition at 10 µM: read-out: percent inhibition at 10 μM (given for EC50 >10 μM), TGF-β1, αSMA, 10 μM;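 for all read-outs here: controls were TGF-β1-stimulated wells with DMSO vehicle as the positive reference and cells given DMSO alone as the negative reference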
[4] = tested on: secreted cytokines TNFα, IL-6 and KC-GRO in BV-2 cells (mouse microglial cells); test: Secreted cytokines in lipopolysaccharide-stimulated mouse glial cell line; assay type: cell-based; conditions: LPS 250 ng/mL 5 hours, table does not say which cytokine
Procedure: Representative compounds were screened using the cell-based assay procedure for secreted cytokines in a Lipopolysaccharide-stimulated mouse glial cell line described below.
BV-2 cells (mouse microglial cells) were cultured in 1:1 DMEM medium supplemented with 10% FBS, and 1% penicillin/streptomycin.
BV-2 cells are plated at 35,000 cells/well in a volume of 100 μl for at least 4 hours before compounds are added. DMSO-resuspended compounds were first dispensed in a 96-well plate and serial diluted from 10 μM to 4.6 nM final concentration in medium. Compounds were added to cells overnight. 250 ng/mL of lipopolysaccharide (Escherichia coli O111:B4, SIGMA) was added for 5 hours. Supernatant is removed and saved for further cytokine detection. The original plates with seeded cells were tested for cytotoxicity by measure of adenosine triphosphate (ATP) release by adding CellTiter-Glo® diluted 1:4 in distilled water (G7573, Promega) and transferring lysed cells to a completely black 96-well plate to be read with the Cytation3. Supernatant was then diluted 1:2 with a diluent from V-PLEX cytokine Kit and directly tested for the secreted cytokines TNFα, IL-6 and KC-GRO using electrochemiluminescence (Meso Scale Discovery). The standard curve for each cytokine was used to convert the electrochemiluminescent signal into pg of protein per mL. The signal was used to plot, draw the curve fitting, and determine each compounds EC50 in Prism (GraphPad).

[5] = target: recombinant DYRK1A kinase (Homo sapiens (Human), UniProt Q13627); test: DYRK1A kinase assay (Ser/Thr 18 peptide Z-lyte, FRET)
Procedure: Each compound was dissolved in DMSO as a 10 mM stock and used to prepare compound source plates.
This is a non-radioactive assay using fluorescence resonance energy transfer (FRET) between coumarin and fluorescein to detect kinase activity which is represented as a ratio of coumarin emission/fluorescein emission.
The mixture was allowed to incubate with the representative compounds for one hour at room temperature. All reactions were performed in duplicate. Unphosphorylated (“0% Control”) and phosphorylated (“100% control”) forms of Ser/Thr 18 served as control reactions. Additionally, an 11-point dose-response curve of Staurosporine (luM top) was run to serve as a positive compound control.
After incubation, Development Reagent A was diluted in Development Buffer then added to the reaction and allowed to further incubate for one hour at room temperature.
Dose-response curves were generated and inhibitory concentration (IC50) values were calculated using non-linear regression curve fit in the Dotmatics' Studies Software (Bishops Stortford, UK).

[6] = GSK3β kinase, head says EC50, method says IC50, ATP 46 μM
[7] = DYRK1A kinase, head says EC50, method says IC50, ATP 30 μM

O=C(CN1CCCC1)Nc1cc2cc(-c3cccnc3)ccc2cn1 [Compound 7, N-(6-(Pyridin-3-yl)isoquinolin-3-yl)-2-(pyrrolidin-1-yl)acetamide]
EC50 [1]: 3.84 µM
EC50 [2, 6]: 0.247 µM
EC50 [3]: 4.35 µM
EC50 [4]: 0.006 µM
EC50 [5, 7]: 0.007 µM

O=C(Nc1cc2cc(-c3cccnc3)ccc2cn1)C12CCN(CC1)CC2 [Compound 9, N-(6-(Pyridin-3-yl)isoquinolin-3-yl)quinuclidine-4-carboxamide]
EC50 [1]: > 10 µM
inhibition at 10 µM [1]: 11.8%
EC50 [3]: 2.27 µM
EC50 [4]: 0.745 µM
EC50 [5, 7]: 0.026 µM

O=C(CN1CCOCC1)Nc1cc2cc(-c3cccnc3)ccc2cn1 [Compound 10, 2-Morpholino-N-(6-(pyridin-3-yl)isoquinolin-3-yl)acetamide]
EC50 [1]: > 10 µM
inhibition at 10 µM [1]: 15.3%
EC50 [2, 6]: 0.525 µM
EC50 [3]: > 10 µM
inhibition at 10 µM [3]: 6.2%
EC50 [4]: 0.075 µM
EC50 [5, 7]: 0.008 µM

CN1CCN(CC(=O)Nc2cc3cc(-c4cccnc4)ccc3cn2)CC1 [Compound 11, 2-(4-Methylpiperazin-1-yl)-N-(6-(pyridin-3-yl)isoquinolin-3-yl)acetamide]
EC50 [1]: > 10 µM
inhibition at 10 µM [1]: 10.8%
EC50 [2, 6]: 1.12 µM
EC50 [3]: 3.58 µM
EC50 [4]: 0.327 µM
EC50 [5, 7]: 0.02 µM

CN1CCCN(CC(=O)Nc2cc3cc(-c4cccnc4)ccc3cn2)CC1 [Compound 12, 2-(4-Methyl-1,4-diazepan-1-yl)-N-(6-(pyridin-3-yl)isoquinolin-3-yl) acetamide]
EC50 [1]: > 10 µM
inhibition at 10 µM [1]: 39.8%
EC50 [2, 6]: 0.722 µM
EC50 [3]: 1.19 µM
EC50 [4]: 1 µM
EC50 [5, 7]: 0.017 µM

CN1CCN(C[C@H]2CC[C@H](C(=O)Nc3cc4cc(-c5cncc(F)c5)ccc4cn3)CC2)CC1 [Compound 17, trans-N-(6-(5-Fluoropyridin-3-yl)isoquinolin-3-yl)-4-((4-methylpiperazin-1-yl)methyl)cyclohexane-1-carboxamide]
EC50 [1]: 6.73 µM
EC50 [2, 6]: 0.974 µM
EC50 [3]: 0.471 µM
EC50 [4]: 0.038 µM
EC50 [5, 7]: 0.003 µM

CN1CCN(CC(=O)Nc2cc3cc(-c4ccc(F)nc4)ccc3cn2)CC1 [Compound 21, N-(6-(6-Fluoropyridin-3-yl)isoquinolin-3-yl)-2-(4-methylpiperazin-1-yl) acetamide]
EC50 [1]: > 10 µM
inhibition at 10 µM [1]: 5.5%
EC50 [2, 6]: 3.21 µM
EC50 [3]: 3.41 µM
EC50 [4]: 0.671 µM
EC50 [5, 7]: 0.042 µM

CN1CCC(C(=O)Nc2cc3cc(-c4cncc(N5CCCC5)c4)ccc3cn2)CC1 [Compound 50, 1-Methyl-N-(6-(5-(pyrrolidin-1-yl)pyridin-3-yl)isoquinolin-3-yl)piperidine-4-carboxamide]
EC50 [1]: 0.312 µM
EC50 [2, 6]: 0.725 µM
EC50 [3]: > 10 µM
inhibition at 10 µM [3]: 31.1%
EC50 [4]: 0.109 µM
EC50 [5, 7]: 0.025 µM

[2H]c1nc([2H])c(-c2ccc3cnc(NC(=O)CN4CCN(C)CC4)cc3c2)c([2H])c1[2H] [Compound 61, 2-(4-Methylpiperazin-1-yl)-N-(6-(pyridin-3-yl-d4)isoquinolin-3-yl)acetamide]
EC50 [1]: > 10 µM
inhibition at 10 µM [1]: 19.6%
EC50 [2]: 1.03 µM
EC50 [3]: > 10 µM
inhibition at 10 µM [3]: 4.6%
EC50 [4]: 0.086 µM
EC50 [5]: 0.011 µM

[2H]c1nc([2H])c(-c2ccc3cnc(NC(=O)CN4CCOCC4)cc3c2)c([2H])c1[2H] [Compound 62, 2-Morpholino-N-(6-(pyridin-3-yl-d4)isoquinolin-3-yl)acetamide]
EC50 [1]: > 10 µM
inhibition at 10 µM [1]: 18.4%
EC50 [2]: 0.455 µM
EC50 [3]: > 10 µM
inhibition at 10 µM [3]: 13.2%
EC50 [4]: 0.307 µM
EC50 [5]: 0.009 µM

O=C(CN1CCOCC1)Nc1cc2cc(-c3ccnnc3)ccc2cn1 [Compound 67, 2-morpholino-N-(6-(pyridazin-4-yl)isoquinolin-3-yl)acetamide]
EC50 [1]: > 10 µM
inhibition at 10 µM [1]: 26.5%
EC50 [2]: 0.068 µM
EC50 [3]: 1.03 µM
EC50 [4]: 0.406 µM
EC50 [5]: 0.029 µM

O=C(Nc1cc2cc(-c3cnccn3)ccc2cn1)[C@H]1C[C@H](N2CCOCC2)C1 [Compound 69, trans-3-Morpholino-N-(6-(pyrazin-2-yl)isoquinolin-3-yl)cyclobutane-1-carboxamide]
EC50 [1]: > 10 µM
inhibition at 10 µM [1]: 9%
EC50 [2]: 0.283 µM
EC50 [3]: 6.73 µM
EC50 [4]: 0.75 µM
EC50 [5]: 0.02 µM

O=C(Nc1cc2cc(-c3cnccn3)ccc2cn1)[C@H]1CC[C@H](N2CCOCC2)CC1 [Compound 71, trans-4-Morpholino-N-(6-(pyrazin-2-yl)isoquinolin-3-yl)cyclohexane-1-carboxamide]
EC50 [1]: > 10 µM
inhibition at 10 µM [1]: 32.1%
EC50 [2]: 1.02 µM
EC50 [3]: > 10 µM
inhibition at 10 µM [3]: 43.4%
EC50 [4]: 0.629 µM
EC50 [5]: 0.011 µM

O=C(Nc1cc2cc(-c3cnccn3)ccc2cn1)[C@H]1CC[C@H](CN2CC(F)C2)CC1 [Compound 72, trans-4-((3-Fluoroazetidin-1-yl)methyl)-N-(6-(pyrazin-2-yl)isoquinolin-3-yl)cyclohexane-1-carboxamide]
EC50 [1]: > 10 µM
inhibition at 10 µM [1]: 35.7%
EC50 [2]: 1.22 µM
EC50 [3]: 1.83 µM
EC50 [4]: 1.31 µM
EC50 [5]: 0.007 µM

CN1CCN(C[C@H]2CC[C@H](C(=O)Nc3cc4cc(-c5cnccn5)ccc4cn3)CC2)CC1 [Compound 73, trans-4-((4-Methylpiperazin-1-yl)methyl)-N-(6-(pyrazin-2-yl)isoquinolin-3-yl)cyclohexane-1-carboxamide]
EC50 [1]: > 10 µM
inhibition at 10 µM [1]: 33.3%
EC50 [2]: 0.828 µM
EC50 [3]: > 10 µM
inhibition at 10 µM [3]: 43.1%
EC50 [4]: 0.694 µM
EC50 [5]: 0.004 µM

O=C(Nc1cc2cc(-c3cnccn3)ccc2cn1)C1CCN(CCF)CC1 [Compound 77, 1-(2-Fluoroethyl)-N-(6-(pyrazin-2-yl)isoquinolin-3-yl)piperidine-4-carboxamide]
EC50 [1]: > 10 µM
inhibition at 10 µM [1]: 36.4%
EC50 [2, 6]: 1.07 µM
EC50 [3]: 4.76 µM
EC50 [4]: 0.28 µM
EC50 [5, 7]: 0.011 µM

O=C(Nc1cc2cc(-c3cnccn3)ccc2cn1)C1CCN(C2COC2)CC1 [Compound 78, 1-(Oxetan-3-yl)-N-(6-(pyrazin-2-yl)isoquinolin-3-yl)piperidine-4-carboxamide]
EC50 [1]: > 10 µM
inhibition at 10 µM [1]: 28.1%
EC50 [2, 6]: 0.804 µM
EC50 [3]: 2.31 µM
EC50 [4]: 0.131 µM
EC50 [5, 7]: 0.013 µM

CC(C)Nc1cncc(-c2ccc3cnc(NC(=O)C4CCN(C)CC4)cc3c2)n1 [Compound 88, N-(6-(6-(Isopropylamino)pyrazin-2-yl)isoquinolin-3-yl)-1-methylpiperidine-4-carboxamide]
EC50 [1]: 0.068 µM
EC50 [2, 6]: 0.026 µM
EC50 [3]: > 10 µM
inhibition at 10 µM [3]: 31.9%
EC50 [4]: 1.07 µM
EC50 [5, 7]: 0.001 µM
